In ChEMBL document CHEMBL1149002, “Antineoplastic agents, 116. An evaluation of the marine ascidian Aplidium californicum” (1986) one finds Activity data, which are given here for three molecules.

What all share (format): functional
The test system of test [1] is P388. In words: In vivo antineoplastic activity against mouse P388 cells assessed as life extension at 46 to 185 ug/kg.
The subject of test [2] is P388. The test can be described thus: In vivo antineoplastic activity against mouse P388 cells assessed as life extension at 3.1 mg/kg.
The test system of test [3] is P388. In words: In vivo antineoplastic activity against mouse P388 cells assessed as life extension at 46 to 92 ug/kg.

Regarding `COC(=O)/C=C1/C[C@H]2C[C@]3(O)O[C@H](C[C@@H](O)CC(=O)O[C@@H]([C@@H](C)O)C[C@H]4C/C(=C\C(=O)OC)[C@H](OC(C)=O)[C@@](O)(O4)C(C)(C)/C=C/[C@@H](C1)O2)C[C@H](OC(=O)CC(C)C)C3(C)C` [BRYOSTATIN 5], the Activity in the test with P388 [1] came out at 45%. Take `CC(C)=CCc1cc(O)ccc1O` [PRENYLHYDROQUINONE]: the Activity in the test on P388 [2] was 38%. As to `CCCC(=O)O[C@H]1/C(=C/C(=O)OC)C[C@@H]2C[C@H]([C@@H](C)O)OC(=O)C[C@H](O)C[C@@H]3C[C@H](OC(=O)CC(C)C)C(C)(C)[C@](O)(C[C@@H]4C/C(=C/C(=O)OC)C[C@H](/C=C/C(C)(C)[C@]1(O)O2)O4)O3` [BRYOSTATIN 4], in the test on P388 [3], the Activity worked out at 62%.
